One data set relates to L. monocytogenes. The data set is described as follows: in vitro assay for antibacterial activity (number of viable bacteria). In kind it is cell-based, Listeria monocytogenes strain EGD. The conditions noted are these: for killing of L. monocytogenes (result in words): dose-effect studies, proteins in PBS-Tw, synthetic peptides in NaPB-TSB. Here is the method:
(§1) Listeria monocytogenes strain EGD, Klebsiella pneumoniae (43816), and Escherichia coli O54 were purchased from the American Type Culture Collection (Rockville, MD). Antibiotic resistant S. aureus, K. pneumoniae and E. coli were cultured overnight in nutrient broth (Oxoid, Basingstoke, UK) at 37°C, diluted in tryptase soya broth (TSB, Oxoid) and cultured for an additional 2 h in a shaking waterbath at 37 °C. L. monocytogenes was cultured overnight in brain heart infusion broth (BHI, Oxoid) at 37°C, diluted and cultured for an additional 2 h in a shaking waterbath at 37°C.
(§2) In short, bacteria were washed with phosphate-buffered saline (PBS) (pH 7.4) and diluted to a concentration of approximately 2x10^6 CFU/ml of phosphate-buffered saline (pH 6.0) supplemented with 0.1 % (v/v) Tween-20 (hereafter designated as PBS-Tw). […] At various time intervals (range 0-4 h) after incubation at 37 °C the number of viable bacteria was determined microbiologically. As negative controls, bovine serum albumin (BSA; Sigma) or no peptide were included.

For the next data set, the system named is E. coli. Described as above. It is filed as cell-based, Escherichia coli O54. The settings on record: synthetic peptides in NaPB-TSB, 1 h at 37 °C. The method, then:
as §1
[…] […] At various time intervals (range 0-4 h) after incubation at 37 °C the number of viable bacteria was determined microbiologically. As negative controls, bovine serum albumin (BSA; Sigma) or no peptide were included.

Another data set relates to K. pneumoniae. Described as above. It is filed as cell-based, Klebsiella pneumoniae (43816). The settings on record: proteins in PBS-Tw, synthetic peptides in NaPB-TSB. Here is the method: as §1, §2
The next data set concerns bacteria. The experiment in a line: in vitro assay for antibacterial activity, bacteria not specified. It is filed as cell-based. The settings on record: L. monocytogenes, antibiotic resistant S. aureus, K. pneumoniae, E. coli (FIGS. 2A-2D); 7 µM, 1 h at 37 °C. The method, then:
as §1
In short, bacteria were washed with phosphate-buffered saline (PBS) (pH 7.4) and diluted to a concentration of approximately 2x10^6 CFU/ml of phosphate-buffered saline (pH 6.0) supplemented with 0.1 % (v/v) Tween-20 (hereafter designated as PBS-Tw). […] […] As negative controls, bovine serum albumin (BSA; Sigma) or no peptide were included.

Data set [1] concerns antibiotic resistant S. aureus. The experiment in a line: in vitro assay for antibacterial activity (number of viable bacteria). It is filed as cell-based, Staphylococcus aureus strain 2141. The conditions noted are these: for killing of antibiotic resistant S. aureus (result in words): dose-effect studies, proteins in PBS-Tw, synthetic peptides in NaPB-TSB. Here is the method: as §1, §2

The nature of data set [2]: pharmacology of 99mTc-labelled protein/peptides by scintigraphy (clearance, organ uptake, amount at the site of infection). In kind it is in vivo, mice. The settings on record: for mean t1/2 (removal from the circulation): mouse, in vivo, iv; for Uptake by bladder / Uptake by kidneys / Uptake by liver: 1 nmole 99mTc-labelled, mice infected with antibiotic resistant S. aureus. The source says:
Labeling yields amounted to 88-95%.

Data set [3] deals with antibiotic resistant S. aureus. The data set is described as follows: experimental thigh muscle infection. In kind it is in vivo, mice. The settings on record: for amount with which maximum effects on the number of viable bacteria were seen: mice infected with antibiotic resistant S. aureus, i.v. injection 24 h after infection, within 24 h after injection; for antibacterial activity in infected mice (result in words): mice with thigh muscle infection with antibiotic resistant S. aureus. Here is the method: All animal studies were done in compliance with the LUMC Ethical Committee and Dutch laws related to the conduct of animal experiments. […] In short, specific pathogen-free, male, Swiss mice weighing 20-25 g (Broekman Institute, Someren, The Netherlands) were anaesthetized with a single intraperitoneal injection of 0.1 ml of saline containing 1 mg fluanisone and 0.03 mg fentanyl citrate (Hypnorm, Janssen Pharmaceutics, Tilburg, The Netherlands). Preceding scintigraphy, a subcutaneous injection of 0.1 ml, containing 0.2 mg diazepam (Valium, Hoffmann-La Roche, Mijdrecht. The Netherlands) was administered. Immediately thereafter, 1x10^7 CFU of antibiotic resistant S. aureus or K. pneumoniae in 0.1 ml of saline were injected into the right thigh muscle. […] As a control, mice were injected with 0.2 ml of saline containing BSA or saline without any peptide. […] Next, the infected thigh muscles were removed and, after weighing, homogenized in 4 ml of PBS. Appropriate dilutions of the homogenates were applied onto diagnostic sensitivity test plates (Oxoid), and the number of colonies counted after an overnight culture at 37 °C. Results are expressed as the number of CFUs per gram of infected tissue. All negative cultures were assigned the values of 100 CFU/ml of homogenate, which is the lower limit of detection.

On to “hLF(3-11): synthetic fragment of hLF(1-11): residues 3-11 of hLF (RRSVQWCAV; UniProt P02788 22-30, looked up, fragment)”, for which the “killing of L. monocytogenes (result in words)” value (“killing of L. monocytogenes” below) with L. monocytogenes is listed as “significantly (p<0.05) more efficient than hLF(4-11)”. The “killing of E. coli by synthetic peptides (result in words)” value (shortened to “killing of E. coli by synthetic peptides”) in the data set with E. coli is recorded as “killed”. The “killing of K. pneumoniae (result in words)” value (from here on “killing of K. pneumoniae”) in the data set on K. pneumoniae is “killed”. Besides, the “bactericidal activity against the various bacteria” value (“bactericidal activity” for short) in the data set with bacteria is reported as “displayed bactericidal activity”. Besides, in data set [1], the “killing of antibiotic resistant S. aureus (result in words)” value is recorded as “significantly (p<0.05) more efficient than hLF(4-11)”.
As for “FQWQRNMRKVR [hLF(21-31), Mr 1,548; includes the second cationic domain, reference compound]”, the “mean t1/2 (removal from the circulation)” value in data set [2] is recorded as roughly 2 min. In data set [3], the “amount with which maximum effects on the number of viable bacteria were seen” value worked out at 10 nmol and the “antibacterial activity in infected mice (result in words)” value (from here on “antibacterial activity in infected mice”) is given as “less effective than hLF(1-11)”.
“hLF(6-11): synthetic fragment of hLF(1-11): residues 6-11 of hLF (VQWCAV; UniProt P02788 25-30, looked up, fragment)”: the “bactericidal activity” value in the data set on bacteria is reported as “ineffective”.
As for “hLF(4-11): synthetic fragment of hLF(1-11): residues 4-11 of hLF (RSVQWCAV; UniProt P02788 23-30, looked up, fragment)”, in data set [2], the “mean t1/2 (removal from the circulation)” value was “approximately 1 min”. Besides, the “antibacterial activity in infected mice” value in data set [3] was “some antibacterial activity”. Moreover, the “bactericidal activity” value with bacteria is on record as “displayed bactericidal activity”.
Consider “hLF(5-11): synthetic fragment of hLF(1-11): residues 5-11 of hLF (SVQWCAV; UniProt P02788 24-30, looked up, fragment)”, for which, in the data set with bacteria, the “bactericidal activity” value is reported as “ineffective”.
For the substance “hLF(2-11): residues 2 to 11 inclusively from the N-terminal region of hLF (RRRSVQWCAV; UniProt P02788 21-30, looked up, fragment)”, in the data set with L. monocytogenes, the “killing of L. monocytogenes” value is “considerably (p<0.05) more efficient than hLF(3-11)”. Besides, the “killing of E. coli by synthetic peptides” value with E. coli is given as “killed”. The “killing of K. pneumoniae” value with K. pneumoniae is “killed”. Also, the “bactericidal activity” value in the data set on bacteria was “displayed bactericidal activity”. For the same substance, the “killing of antibiotic resistant S. aureus (result in words)” value in data set [1] was “considerably (p<0.05) more efficient than hLF(3-11)”.
As to GRRRRSVQWCA [hLF(1-11), Mr 1,374], the “bactericidal efficiency relative to hLF(21-31)” value with L. monocytogenes (L. monocytogenes, FIGS. 3A-3C) was “at least ten times more (p<0.05) efficient than hLF(21-31)”; in data set [1] (antibiotic resistant S. aureus, FIGS. 3A-3C), “at least ten times more (p<0.05) efficient than hLF(21-31)”. Moreover, the “killing of L. monocytogenes” value in the data set on L. monocytogenes is reported as “considerably (p<0.05) more efficient than hLF(3-11)”. In addition, the Uptake by bladder in data set [2] (interval 1 min) is given as 10±1.5 % ID; in data set [2] (interval 15 min) it was 11±7.5 % ID; in data set [2] (interval 30 min) it was 21±5.7 % ID; in data set [2] (interval 60 min), 22±5.6 % ID. The Uptake by kidneys in data set [2] (interval 1 min) is reported as 18±3.8 % ID; in data set [2] (interval 15 min) it was 21±9.3 % ID; in data set [2] (interval 30 min) it was 17±5.7 % ID; in data set [2] (interval 60 min), 14±0.4 % ID. Besides, the Uptake by liver in data set [2] (interval 1 min) is 20±1.6 % ID; in data set [2] (interval 15 min), 20±4.9 % ID; in data set [2] (interval 30 min) it was 20±1.6 % ID; in data set [2] (interval 60 min), 27±0.6 % ID. In addition, in data set [2], the “mean t1/2 (removal from the circulation)” value is given as roughly 9 min. Besides, in data set [2] (within the first min after injection of 1 nmole, antibiotic resistant S. aureus-infected mice), the “amount of radiolabeled peptide at the site of infection” value was 1-1.5 % of injected dose (ID). Besides, the “killing of E. coli by synthetic peptides” value with E. coli is recorded as “killed”. Moreover, the “killing of K. pneumoniae” value with K. pneumoniae is recorded as “killed”. Besides, the “amount with which maximum effects on the number of viable bacteria were seen” value in data set [3] stood at 0.1 nmol. The “antibacterial activity in infected mice” value in data set [3] is listed as “much more effective than hLF(4-11)”. The “bactericidal activity” value with bacteria is “displayed bactericidal activity”. Moreover, the “killing of antibiotic resistant S. aureus (result in words)” value in data set [1] was “considerably (p<0.05) more efficient than hLF(3-11)”.

For the origin of these results see patent publication EP1228097B1, “ANTIMICROBIAL ACTIVITY OF THE FIRST CATIONIC CLUSTER OF HUMAN LACTOFERRIN” (priority 1999, dated 2005).
